What was measured:
[1] = Cytotoxicity, residual cell viability after 24 hours; type: cell-based; settings: 10 μM
[2] = target: T1, overexpressed TRPC5 channels (Homo sapiens, UniProt Q9UL62); settings: cited from earlier work
T1 sequence (Q9UL62 1-973): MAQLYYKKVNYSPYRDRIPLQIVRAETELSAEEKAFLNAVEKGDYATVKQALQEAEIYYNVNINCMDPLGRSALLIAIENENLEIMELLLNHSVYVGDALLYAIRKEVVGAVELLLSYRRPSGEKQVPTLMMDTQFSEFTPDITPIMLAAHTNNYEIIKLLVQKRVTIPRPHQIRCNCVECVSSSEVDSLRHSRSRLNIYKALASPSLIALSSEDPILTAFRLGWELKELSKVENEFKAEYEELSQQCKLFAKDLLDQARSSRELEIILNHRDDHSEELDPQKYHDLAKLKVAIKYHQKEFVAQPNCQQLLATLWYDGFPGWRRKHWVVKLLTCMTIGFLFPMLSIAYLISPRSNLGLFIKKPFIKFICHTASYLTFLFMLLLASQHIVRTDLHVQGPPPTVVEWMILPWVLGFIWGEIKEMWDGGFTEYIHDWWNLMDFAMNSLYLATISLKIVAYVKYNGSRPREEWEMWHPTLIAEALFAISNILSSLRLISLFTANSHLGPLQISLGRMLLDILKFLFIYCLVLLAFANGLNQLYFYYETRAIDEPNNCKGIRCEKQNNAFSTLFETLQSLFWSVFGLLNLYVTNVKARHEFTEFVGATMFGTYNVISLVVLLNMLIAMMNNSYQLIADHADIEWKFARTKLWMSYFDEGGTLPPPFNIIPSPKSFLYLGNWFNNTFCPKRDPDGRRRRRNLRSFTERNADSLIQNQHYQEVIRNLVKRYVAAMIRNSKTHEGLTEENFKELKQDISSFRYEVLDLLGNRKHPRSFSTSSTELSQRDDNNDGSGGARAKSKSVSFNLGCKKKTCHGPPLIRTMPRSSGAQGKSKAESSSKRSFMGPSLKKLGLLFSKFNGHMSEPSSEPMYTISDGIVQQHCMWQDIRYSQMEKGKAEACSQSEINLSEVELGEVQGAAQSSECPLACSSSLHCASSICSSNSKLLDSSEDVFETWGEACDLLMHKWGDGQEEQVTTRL

[3] = test system: vascular smooth muscle cells; settings: cited from earlier work
endogenous TRPC1/5 = endogenous TRPC1/5 (Homo sapiens, UniProt P48995+Q9UL62); settings: cited from earlier work
ICRAC = ICRAC (Homo sapiens, UniProt Q96D31); settings: read-out: IC50 (ICRAC inhibition); cited from earlier work
[4] = test system: metabotropic glutamate, muscarinic acetylcholine and GABA B receptors, GABA A, AMPA and NMDA receptors, tetrodotoxin-sensitive Na+ channels, N- and P/Q-type …; settings: cited from earlier work
[5] = test system: tBHQ-induced calcium influx into Hek cells (SOCE); experiment: Store-operated calcium entry (SOCE) by Fura-2 Ca2+ measurements in Hek cells; type: cell-based, Human
[6] = test system: T cell cytokine production; settings: T cells; cited from earlier work
STIM1 clustering = settings: vascular smooth muscle cells; cited from earlier work

Chain of endogenous TRPC1/5 (P48995 whole entry, one chain of several): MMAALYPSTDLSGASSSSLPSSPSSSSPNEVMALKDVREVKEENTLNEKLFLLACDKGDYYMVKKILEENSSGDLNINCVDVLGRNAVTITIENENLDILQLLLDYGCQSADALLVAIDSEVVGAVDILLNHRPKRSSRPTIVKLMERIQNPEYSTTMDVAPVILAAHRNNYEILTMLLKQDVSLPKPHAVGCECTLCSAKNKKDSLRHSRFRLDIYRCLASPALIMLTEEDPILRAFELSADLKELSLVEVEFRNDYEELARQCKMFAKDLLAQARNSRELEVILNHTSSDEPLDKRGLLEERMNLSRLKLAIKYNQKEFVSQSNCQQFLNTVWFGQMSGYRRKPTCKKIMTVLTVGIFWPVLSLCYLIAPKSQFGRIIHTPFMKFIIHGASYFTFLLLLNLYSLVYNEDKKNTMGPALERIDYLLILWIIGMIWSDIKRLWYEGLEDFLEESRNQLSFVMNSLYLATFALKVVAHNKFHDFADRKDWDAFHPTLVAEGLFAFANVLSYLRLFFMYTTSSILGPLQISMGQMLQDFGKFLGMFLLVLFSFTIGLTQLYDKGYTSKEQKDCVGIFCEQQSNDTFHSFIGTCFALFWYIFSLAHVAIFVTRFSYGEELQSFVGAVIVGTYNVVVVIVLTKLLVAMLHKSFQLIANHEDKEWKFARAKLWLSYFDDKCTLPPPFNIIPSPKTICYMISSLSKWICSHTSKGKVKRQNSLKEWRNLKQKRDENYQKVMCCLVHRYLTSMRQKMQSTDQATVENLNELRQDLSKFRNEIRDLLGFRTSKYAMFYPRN
Chain of ICRAC (Q96D31 whole entry): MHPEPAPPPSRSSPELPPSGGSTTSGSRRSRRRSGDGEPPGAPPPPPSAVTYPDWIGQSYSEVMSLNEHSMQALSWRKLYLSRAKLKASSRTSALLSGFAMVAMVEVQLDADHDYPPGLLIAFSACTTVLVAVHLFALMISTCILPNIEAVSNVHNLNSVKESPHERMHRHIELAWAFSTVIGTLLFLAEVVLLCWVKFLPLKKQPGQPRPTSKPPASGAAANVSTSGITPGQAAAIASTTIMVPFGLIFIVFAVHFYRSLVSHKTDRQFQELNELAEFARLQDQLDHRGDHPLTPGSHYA

Structure (SMILES): COc1ccc(OC)c(-c2ccc(NC(=O)c3ccncc3F)cc2)c1 [Synta66, 3-fluoropyridine-4-carboxylic acid (2′,5′-dimethoxybiphenyl-4-yl)amide]
- residual cell viability [1]: 76%
- inhibition of overexpressed TRPC5 channels [2]: does not inhibit
- IC50 [3]: ~0.03 µM
- inhibition of endogenous TRPC1/5 (endogenous TRPC1/5): does not inhibit
- IC50 (ICRAC): ~1 µM
- effect on receptors and ion channels (mGlu, muscarinic, GABA B, GABA A, AMPA, NMDA, TTX-sensitive Na+, N- and P/Q-type Ca2+ channels) [4]: does not affect
- IC50 in inhibiting SOCE activity [5]: in the nanomolar range
- production of IFN-gamma, IL-2 and IL-17 [6]: inhibits the production
- production of IL-8 [6]: but not of IL-8
- interference with STIM1 clustering (STIM1 clustering): does not interfere with STIM1 clustering
